Reference: patent US7173061B2, “Compounds for imaging alzheimer's disease” (GE Healthcare Limited, priority 2001, dated 2007)
No end group written: not given here.

What follows are compounds tested against T1, amyloid 1-40 fibrils (fibrillar BAP 1-40) (Homo sapiens, UniProt P05067) (assay: Determination of amyloid binding (scintillation proximity assay beads coated with fibrillar BAP 1-40)). Conditions: SPA-BAP beads, 180 minutes at room temperature, equimolar amounts, SPA-NSB counts subtracted; 125I-BAP binding taken as 100%.
T1 construct: used to immobilise fibrillar Beta-Amyloid Protein (BAP 1-40); purchased Biosource 03-138 (BAP 1-40); 03-243 (biotinylated BAP 1-40)
T1 sequence (P05067 672-711): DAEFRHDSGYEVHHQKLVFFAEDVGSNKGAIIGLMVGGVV
Procedure: The binding of Compounds was determined compared to the ability of ^125I-beta amyloid protein 1-40 (^125I-BAP 1-40, Amersham Biosciences IM294)) to bind to amyloid 1-40 fibrils. Amyloid binding was essentially performed as follows.
Three fresh buffer stocks were prepared for experiments: Buffer 1, 50 mM HEPES/0.1% Bovine Serum Albumin (BSA) pH 7.5; Buffer 2, 50 mM HEPES/0.1% BSA/400 μM ZnCl2 pH 7.5; Buffer 3, 50 mM HEPES/0.1% BSA/100 μM ZnCl2 pH 7.5.
Streptavidin coated scintillation proximity assay beads (SA-SPA beads, Amersham Biosciences) were used to immobilise fibrillar Beta-Amyloid Protein (BAP 1-40). Amyloid coated beads (SPA-BAP) were prepared by incubating 250 μl SA-SPA beads (100 mg/ml) with 250 μl Buffer 2, 425 μl Buffer 1, 50 μl biotinylated BAP 1-40 (0.5 mg/ml, Biosource 03–243), 25 μl BAP 1-40 (10 mg/ml, Biosource 03–138). Non-specific binding SPA beads (SPA-NSB) were prepared to assess the binding of compounds to SPA beads with no associated BAP 1-40 fibrils in the following incubation: 250 μl SA-SPA beads (100 mg/ml) with 250 μl Buffer 2, 500 μl Buffer 1.
SPA-BAP and SPA-NSB incubations were left for 24 hours at room temperature and then spun 1.5 ml tubes (eppendorf, Merk, 306/0421/12) for 2 minutes at 1000×g. The supernatants were removed and the beads were washed twice by resuspending them in 1 ml Buffer 3 followed by centrifugation for 2 minutes at 1000×g. Finally, washed SPA-BAP and SPA-NSB beads were resuspended in 1 ml Buffer 3.
Amyloid binding of ^125I-BAP 1-40 and test compounds was performed in triplicate in 0.5 ml tubes (eppendorf, Merk, 306/0421/02) by adding 50 μl SPA-BAP beads to 25 μl Buffer 2 and 25 μl labelled compound (^125I-BAP 1-40 or test compound). Tubes were then incubated for 180 minutes at room temperature with shaking, followed by centrifugation for 2 minutes at 1000×g. The supematants were removed and SPA-BAP pellet washed twice with 300 μl Buffer 3 containing 1% TWEEN-20 (Sigma, P7949). Non-specific binding for labelled compounds to the SPA beads was determined using incubations as described above but by substituting SPA-BAP beads with SPA-NSB beads. Radioactivity associated with the washed SPA bead pellets was then determined.
The affinity of labelled compounds for fibrillar BAP 1-40 was estimated by subtracting SPA-NSB associated counts from SPA-BAP associated counts. The binding of labelled compounds was then compared to ^125I-BAP binding, which was taken as being 100%.
In these experiments, ^125I-BAP 1-40 or test compounds were added in equimolar amounts.
For CCN(CC)CCOc1ccc(C(=O)c2c(-c3ccc(OCC(=O)NCCN(CCNC(C)(C)/C(C)=N\O)CCNC(C)(C)/C(C)=N\O)cc3)oc3ccc(Cl)cc23)cc1 [Example 1(vii) Pn216 conjugated], the “Amyloid binding (% of 125I-BAP 1-40)” value was 23%.
CCN(CC)CCCOc1ccc(C(=O)c2c(-c3ccc(OCC(=O)NCCN(CCNC(C)(C)/C(C)=N/O)CCNC(C)(C)/C(C)=N/O)cc3)oc3ccc(Cl)cc23)cc1 [Example 2(vii) Pn216 conjugated] was tested, and the “Amyloid binding (% of 125I-BAP 1-40)” value was 15%.
In the case of C/C(=N\O)C(C)(C)NCCN(CCNC(=O)COc1ccc(-c2cc3cc(Cl)ccc3o2)cc1)CCNC(C)(C)/C(C)=N/O [Example 8(iii) Pn216 conjugated], the “Amyloid binding (% of 125I-BAP 1-40)” value is reported as 40%.
For “^125I-BAP 1-40: 125I-beta amyloid protein 1-40, Amersham Biosciences IM294; reference whose binding to amyloid fibrils is taken as 100% [reference compound]”, the “Amyloid binding (% of 125I-BAP 1-40)” value was 100%.
For “^125I-KKLVFFA (BAP 15-21): 125I-labelled BAP 15–21 sequence (Amersham Biosciences), responsible for the binding of BAP to itself (also: 125I label) [reference compound]”, the “Amyloid binding (% of 125I-BAP 1-40)” value was 21%.
